Laboratory results as given in publication PMC9898036, “VIP152 is a selective CDK9 inhibitor with pre-clinical in vitro and in vivo efficacy in chronic lymphocytic leukemia” (Leukemia, 2022).

How the values were obtained:
[1] = tested on: relapsed/refractory primary CLL samples; experiment: Annexin V/propidium iodide flow cytometry; assay type: cell-based; details: Homo sapiens; 8 BTKi/venetoclax relapsed/refractory samples; 24 h; read-out: IC50 (50% killing)
Adrenergic α1B = Adrenergic α1B (Rattus norvegicus, UniProt P15823); experiment: Eurofins Diversity Panel; assay type: binding; details: Conc. 10 μM
Bradykinin B1 = Bradykinin B1 (Homo sapiens, UniProt P46663); experiment: Eurofins Diversity Panel; assay type: binding; details: hum, Conc. 10 μM
Dopamine D1 = Dopamine D1 (Homo sapiens, UniProt P21728); experiment: Eurofins Diversity Panel; assay type: binding; details: hum, Conc. 10 μM
Glucocorticoid = Glucocorticoid (Homo sapiens, UniProt P04150); experiment: Eurofins Diversity Panel; assay type: binding; details: hum, Conc. 10 μM
Tachykinin NK1 = Tachykinin NK1 (Homo sapiens, UniProt P25103); experiment: Eurofins Diversity Panel; assay type: binding; details: hum, Conc. 10 μM
ROCK2 = ROCK2 (Homo sapiens, UniProt O75116); experiment: KINOMEscan: ROCK2; assay type: binding; details: 100 nM, read-out: Percent Control
[2] = target: RPS6KA4(Kin.Dom.1-N-terminal) (Homo sapiens, UniProt O75676); experiment: KINOMEscan: RPS6KA4(Kin.Dom.1-N-terminal); assay type: binding; details: 100 nM, read-out: Percent Control
[3] = target: RPS6KA5(Kin.Dom.1-N-terminal) (Homo sapiens, UniProt O75582); experiment: KINOMEscan: RPS6KA5(Kin.Dom.1-N-terminal); assay type: binding; details: 100 nM, read-out: Percent Control
S6K1 = S6K1 (Homo sapiens, UniProt P23443); experiment: KINOMEscan: S6K1; assay type: binding; details: 100 nM, read-out: Percent Control
STK35 = STK35 (Homo sapiens, UniProt Q8TDR2); experiment: KINOMEscan: STK35; assay type: binding; details: 100 nM, read-out: Percent Control
TLK2 = TLK2 (Homo sapiens, UniProt Q86UE8); experiment: KINOMEscan: TLK2; assay type: binding; details: 100 nM, read-out: Percent Control
TNIK = TNIK (Homo sapiens, UniProt Q9UKE5); experiment: KINOMEscan: TNIK; assay type: binding; details: 100 nM, read-out: Percent Control
ULK2 = ULK2 (Homo sapiens, UniProt Q8IYT8); experiment: KINOMEscan: ULK2; assay type: binding; details: 100 nM, read-out: Percent Control
AAK1 = AAK1 (Homo sapiens, UniProt Q2M2I8); experiment: KINOMEscan: AAK1; assay type: binding; details: 1000 nM, read-out: Percent Control
AMPK-alpha2 = AMPK-alpha2 (Homo sapiens, UniProt P54646); experiment: KINOMEscan: AMPK-alpha2; assay type: binding; details: 1000 nM, read-out: Percent Control
BUB1 = BUB1 (Homo sapiens, UniProt O43683); experiment: KINOMEscan: BUB1; assay type: binding; details: 1000 nM, read-out: Percent Control
CAMK2G = CAMK2G (Homo sapiens, UniProt Q13555); experiment: KINOMEscan: CAMK2G; assay type: binding; details: 1000 nM, read-out: Percent Control
CDK2 = CDK2 (Homo sapiens, UniProt P24941); experiment: KINOMEscan: CDK2; assay type: binding; details: 1000 nM, read-out: Percent Control
CDK5 = CDK5 (Homo sapiens, UniProt Q00535); experiment: KINOMEscan: CDK5; assay type: binding; details: 1000 nM, read-out: Percent Control
CDKL5 = CDKL5 (Homo sapiens, UniProt O76039); experiment: KINOMEscan: CDKL5; assay type: binding; details: 1000 nM, read-out: Percent Control
CHEK2 = CHEK2 (Homo sapiens, UniProt O96017); experiment: KINOMEscan: CHEK2; assay type: binding; details: 1000 nM, read-out: Percent Control
CLK2 = CLK2 (Homo sapiens, UniProt P49760); experiment: KINOMEscan: CLK2; assay type: binding; details: 1000 nM, read-out: Percent Control
CSF1R = CSF1R (Homo sapiens, UniProt P07333); experiment: KINOMEscan: CSF1R; assay type: binding; details: 1000 nM, read-out: Percent Control
CSK = CSK (Homo sapiens, UniProt P41240); experiment: KINOMEscan: CSK; assay type: binding; details: 1000 nM, read-out: Percent Control
DCAMKL3 = DCAMKL3 (Homo sapiens, UniProt Q9C098); experiment: KINOMEscan: DCAMKL3; assay type: binding; details: 1000 nM, read-out: Percent Control
DDR1 = DDR1 (Homo sapiens, UniProt Q08345); experiment: KINOMEscan: DDR1; assay type: binding; details: 1000 nM, read-out: Percent Control
EPHB6 = EPHB6 (Homo sapiens, UniProt O15197); experiment: KINOMEscan: EPHB6; assay type: binding; details: 1000 nM, read-out: Percent Control
FLT3(D835H) = FLT3(D835H) (Homo sapiens, UniProt P36888, D835H); experiment: KINOMEscan: FLT3(D835H); assay type: binding; details: 1000 nM, read-out: Percent Control
FLT3(D835Y) = FLT3(D835Y) (Homo sapiens, UniProt P36888, D835Y); experiment: KINOMEscan: FLT3(D835Y); assay type: binding; details: 1000 nM, read-out: Percent Control
HIPK2 = HIPK2 (Homo sapiens, UniProt Q9H2X6); experiment: KINOMEscan: HIPK2; assay type: binding; details: 1000 nM, read-out: Percent Control
HUNK = HUNK (Homo sapiens, UniProt P57058); experiment: KINOMEscan: HUNK; assay type: binding; details: 1000 nM, read-out: Percent Control
IRAK4 = IRAK4 (Homo sapiens, UniProt Q9NWZ3); experiment: KINOMEscan: IRAK4; assay type: binding; details: 1000 nM, read-out: Percent Control
KIT = KIT (Homo sapiens, UniProt P10721); experiment: KINOMEscan: KIT; assay type: binding; details: 1000 nM, read-out: Percent Control
KIT(A829P) = KIT(A829P) (Homo sapiens, UniProt P10721, A829P); experiment: KINOMEscan: KIT(A829P); assay type: binding; details: 1000 nM, read-out: Percent Control
KIT(D816H) = KIT(D816H) (Homo sapiens, UniProt P10721, D816H); experiment: KINOMEscan: KIT(D816H); assay type: binding; details: 1000 nM, read-out: Percent Control
LOK = LOK (Homo sapiens, UniProt O94804); experiment: KINOMEscan: LOK; assay type: binding; details: 1000 nM, read-out: Percent Control
MET = MET (Homo sapiens, UniProt P08581); experiment: KINOMEscan: MET; assay type: binding; details: 1000 nM, read-out: Percent Control
MKNK2 = MKNK2 (Homo sapiens, UniProt Q9HBH9); experiment: KINOMEscan: MKNK2; assay type: binding; details: 1000 nM, read-out: Percent Control
MLK2 = MLK2 (Homo sapiens, UniProt Q02779); experiment: KINOMEscan: MLK2; assay type: binding; details: 1000 nM, read-out: Percent Control
MRCKB = MRCKB (Homo sapiens, UniProt Q9Y5S2); experiment: KINOMEscan: MRCKB; assay type: binding; details: 1000 nM, read-out: Percent Control
MRCKB, sequence (Q9Y5S2 whole entry): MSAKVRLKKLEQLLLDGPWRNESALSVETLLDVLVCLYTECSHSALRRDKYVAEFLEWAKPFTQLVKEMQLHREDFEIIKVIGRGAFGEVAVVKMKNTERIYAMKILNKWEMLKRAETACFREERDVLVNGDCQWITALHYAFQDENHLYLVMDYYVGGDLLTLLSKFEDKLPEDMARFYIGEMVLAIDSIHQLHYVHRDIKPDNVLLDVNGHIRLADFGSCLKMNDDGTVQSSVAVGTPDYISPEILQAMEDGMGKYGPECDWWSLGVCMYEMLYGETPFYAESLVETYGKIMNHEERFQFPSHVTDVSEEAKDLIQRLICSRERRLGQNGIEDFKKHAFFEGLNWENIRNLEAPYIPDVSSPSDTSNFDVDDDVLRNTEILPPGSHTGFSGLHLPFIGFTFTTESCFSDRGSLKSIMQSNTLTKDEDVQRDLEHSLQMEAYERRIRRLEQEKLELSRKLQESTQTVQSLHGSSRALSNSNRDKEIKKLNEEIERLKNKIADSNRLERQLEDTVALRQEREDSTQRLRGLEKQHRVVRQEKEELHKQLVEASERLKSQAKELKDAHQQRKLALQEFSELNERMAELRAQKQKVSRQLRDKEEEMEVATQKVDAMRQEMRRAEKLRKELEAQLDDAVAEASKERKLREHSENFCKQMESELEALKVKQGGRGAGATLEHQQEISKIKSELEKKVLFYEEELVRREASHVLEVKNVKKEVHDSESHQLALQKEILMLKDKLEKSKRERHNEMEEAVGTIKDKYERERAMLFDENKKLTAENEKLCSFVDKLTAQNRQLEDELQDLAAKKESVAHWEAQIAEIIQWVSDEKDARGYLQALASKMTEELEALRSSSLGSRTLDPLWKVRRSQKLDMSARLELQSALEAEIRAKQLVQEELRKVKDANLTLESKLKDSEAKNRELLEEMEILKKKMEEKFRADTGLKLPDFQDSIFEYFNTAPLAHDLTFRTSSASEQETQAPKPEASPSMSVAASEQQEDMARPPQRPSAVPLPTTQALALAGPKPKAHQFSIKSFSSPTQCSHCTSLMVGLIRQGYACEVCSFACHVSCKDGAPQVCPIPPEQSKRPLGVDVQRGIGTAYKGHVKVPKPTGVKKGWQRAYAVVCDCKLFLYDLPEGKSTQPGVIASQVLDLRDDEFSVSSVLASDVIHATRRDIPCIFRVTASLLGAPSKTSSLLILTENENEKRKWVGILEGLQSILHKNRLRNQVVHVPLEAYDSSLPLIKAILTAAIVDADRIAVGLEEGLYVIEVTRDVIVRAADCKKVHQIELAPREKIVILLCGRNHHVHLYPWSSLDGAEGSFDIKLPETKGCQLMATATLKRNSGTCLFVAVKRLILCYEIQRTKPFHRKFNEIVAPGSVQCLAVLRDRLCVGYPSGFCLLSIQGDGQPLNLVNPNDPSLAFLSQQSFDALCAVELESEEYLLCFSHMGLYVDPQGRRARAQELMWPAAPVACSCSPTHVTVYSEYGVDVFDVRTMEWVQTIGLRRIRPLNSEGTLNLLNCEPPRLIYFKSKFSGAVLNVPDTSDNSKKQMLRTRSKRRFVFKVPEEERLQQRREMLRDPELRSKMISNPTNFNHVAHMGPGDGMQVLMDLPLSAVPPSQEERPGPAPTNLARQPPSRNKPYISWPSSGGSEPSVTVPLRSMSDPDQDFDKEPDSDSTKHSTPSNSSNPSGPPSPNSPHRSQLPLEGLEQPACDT

CAMK2G, sequence (Q13555 whole entry): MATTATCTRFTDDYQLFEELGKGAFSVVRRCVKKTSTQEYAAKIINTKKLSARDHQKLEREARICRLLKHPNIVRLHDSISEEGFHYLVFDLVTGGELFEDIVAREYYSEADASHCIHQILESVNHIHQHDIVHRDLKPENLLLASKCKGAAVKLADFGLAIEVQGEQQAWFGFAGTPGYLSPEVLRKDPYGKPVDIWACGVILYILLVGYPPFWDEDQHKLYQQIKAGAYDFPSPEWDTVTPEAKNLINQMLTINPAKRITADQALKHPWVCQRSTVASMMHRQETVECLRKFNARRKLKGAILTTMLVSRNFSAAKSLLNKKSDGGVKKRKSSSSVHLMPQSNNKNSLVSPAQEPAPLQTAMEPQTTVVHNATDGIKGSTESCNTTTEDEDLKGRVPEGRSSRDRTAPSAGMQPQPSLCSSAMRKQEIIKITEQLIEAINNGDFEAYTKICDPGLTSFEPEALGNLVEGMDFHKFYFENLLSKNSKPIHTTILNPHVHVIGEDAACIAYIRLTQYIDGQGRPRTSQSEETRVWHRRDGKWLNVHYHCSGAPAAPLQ
AAK1, sequence (Q2M2I8 whole entry): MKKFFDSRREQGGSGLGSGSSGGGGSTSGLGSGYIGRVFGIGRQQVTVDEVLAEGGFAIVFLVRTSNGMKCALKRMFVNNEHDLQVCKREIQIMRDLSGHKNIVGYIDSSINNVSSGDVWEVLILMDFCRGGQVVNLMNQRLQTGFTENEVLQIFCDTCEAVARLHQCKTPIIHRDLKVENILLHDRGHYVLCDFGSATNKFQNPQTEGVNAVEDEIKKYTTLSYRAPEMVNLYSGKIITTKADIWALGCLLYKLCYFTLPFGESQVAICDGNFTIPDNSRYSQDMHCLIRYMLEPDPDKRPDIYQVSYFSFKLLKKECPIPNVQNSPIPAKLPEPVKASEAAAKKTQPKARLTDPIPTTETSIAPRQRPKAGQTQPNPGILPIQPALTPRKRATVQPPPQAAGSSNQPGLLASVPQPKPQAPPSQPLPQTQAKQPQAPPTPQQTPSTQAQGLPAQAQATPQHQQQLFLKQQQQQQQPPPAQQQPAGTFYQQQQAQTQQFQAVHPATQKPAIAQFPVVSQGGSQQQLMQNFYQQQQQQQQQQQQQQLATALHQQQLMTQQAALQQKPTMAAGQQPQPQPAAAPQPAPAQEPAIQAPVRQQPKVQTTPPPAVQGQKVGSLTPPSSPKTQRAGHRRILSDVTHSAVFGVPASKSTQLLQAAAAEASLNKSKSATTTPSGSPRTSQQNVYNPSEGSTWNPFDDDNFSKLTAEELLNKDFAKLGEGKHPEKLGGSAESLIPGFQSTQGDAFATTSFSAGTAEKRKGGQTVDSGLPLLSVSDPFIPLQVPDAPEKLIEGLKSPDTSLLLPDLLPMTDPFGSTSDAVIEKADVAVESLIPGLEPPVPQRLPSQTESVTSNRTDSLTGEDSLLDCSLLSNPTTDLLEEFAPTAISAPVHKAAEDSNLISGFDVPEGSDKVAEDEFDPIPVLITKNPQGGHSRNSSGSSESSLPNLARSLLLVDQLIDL
ULK2, sequence (Q8IYT8 whole entry): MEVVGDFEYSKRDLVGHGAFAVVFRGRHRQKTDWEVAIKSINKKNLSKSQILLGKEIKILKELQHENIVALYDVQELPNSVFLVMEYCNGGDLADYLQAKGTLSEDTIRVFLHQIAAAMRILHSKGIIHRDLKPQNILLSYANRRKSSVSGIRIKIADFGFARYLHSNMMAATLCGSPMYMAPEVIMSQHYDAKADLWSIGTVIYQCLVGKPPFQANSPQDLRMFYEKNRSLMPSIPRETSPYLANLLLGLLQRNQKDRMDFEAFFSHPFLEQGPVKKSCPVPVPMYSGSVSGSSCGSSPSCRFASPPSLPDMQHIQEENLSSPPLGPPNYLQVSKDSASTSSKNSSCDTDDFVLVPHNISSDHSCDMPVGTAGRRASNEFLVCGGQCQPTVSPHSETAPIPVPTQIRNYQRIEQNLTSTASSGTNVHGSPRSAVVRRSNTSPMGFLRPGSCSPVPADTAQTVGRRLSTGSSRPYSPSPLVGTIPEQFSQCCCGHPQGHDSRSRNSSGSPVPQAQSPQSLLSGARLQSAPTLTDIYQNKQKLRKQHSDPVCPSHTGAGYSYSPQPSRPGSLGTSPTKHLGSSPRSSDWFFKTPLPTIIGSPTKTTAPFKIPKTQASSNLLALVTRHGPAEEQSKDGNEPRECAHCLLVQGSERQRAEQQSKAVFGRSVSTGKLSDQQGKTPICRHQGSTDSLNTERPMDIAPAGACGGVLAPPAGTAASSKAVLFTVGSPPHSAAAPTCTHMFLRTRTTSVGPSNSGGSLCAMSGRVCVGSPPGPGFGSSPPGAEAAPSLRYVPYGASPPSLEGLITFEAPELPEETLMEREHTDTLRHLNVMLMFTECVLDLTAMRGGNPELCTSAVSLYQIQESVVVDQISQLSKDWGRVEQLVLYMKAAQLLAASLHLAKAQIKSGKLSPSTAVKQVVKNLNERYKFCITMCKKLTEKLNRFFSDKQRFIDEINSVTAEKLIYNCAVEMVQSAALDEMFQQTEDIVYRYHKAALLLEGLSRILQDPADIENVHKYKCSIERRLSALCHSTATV
CLK2, sequence (P49760 whole entry): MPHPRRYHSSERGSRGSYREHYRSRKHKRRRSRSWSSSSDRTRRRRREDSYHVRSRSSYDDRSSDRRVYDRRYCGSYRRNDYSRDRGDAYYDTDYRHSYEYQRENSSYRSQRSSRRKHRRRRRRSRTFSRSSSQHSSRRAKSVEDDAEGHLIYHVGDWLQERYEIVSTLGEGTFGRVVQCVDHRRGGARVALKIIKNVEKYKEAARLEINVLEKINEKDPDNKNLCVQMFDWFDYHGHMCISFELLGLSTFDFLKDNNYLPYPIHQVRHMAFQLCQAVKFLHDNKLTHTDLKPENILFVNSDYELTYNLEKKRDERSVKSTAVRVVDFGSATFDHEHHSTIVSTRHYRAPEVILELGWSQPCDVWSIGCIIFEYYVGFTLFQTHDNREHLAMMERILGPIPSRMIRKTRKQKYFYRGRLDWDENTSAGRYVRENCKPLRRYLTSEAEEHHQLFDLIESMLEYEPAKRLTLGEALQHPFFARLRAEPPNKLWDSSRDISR
CDK5, sequence (Q00535 whole entry): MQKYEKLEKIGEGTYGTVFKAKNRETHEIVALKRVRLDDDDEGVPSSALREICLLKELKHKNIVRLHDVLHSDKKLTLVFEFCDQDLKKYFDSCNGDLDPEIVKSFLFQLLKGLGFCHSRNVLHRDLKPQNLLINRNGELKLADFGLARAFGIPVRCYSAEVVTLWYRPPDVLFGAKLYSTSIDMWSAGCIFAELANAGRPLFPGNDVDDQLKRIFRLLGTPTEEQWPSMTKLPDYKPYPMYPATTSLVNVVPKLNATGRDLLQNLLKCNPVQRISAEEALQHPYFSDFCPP

COc1cc(F)ccc1-c1cc(Nc2cc(CS(C)(=N)=O)ccn2)ncc1F (centres unmarked) [VIP152]
IC50 [1]: ~1000 nM
inhibition at 10 µM (Adrenergic α1B): 18%
inhibition at 10 µM (Bradykinin B1): 1%
inhibition at 10 µM (Dopamine D1): 14%
inhibition at 10 µM (Glucocorticoid): 30%
inhibition at 10 µM (Tachykinin NK1): 19%
remaining binding at 0.1 µM (ROCK2): 100%
remaining binding at 0.1 µM [2]: 100%
remaining binding at 0.1 µM [3]: 100%
remaining binding at 0.1 µM (S6K1): 96%
remaining binding at 0.1 µM (STK35): 100%
remaining binding at 0.1 µM (TLK2): 100%
remaining binding at 0.1 µM (TNIK): 100%
remaining binding at 0.1 µM (ULK2): 100%
remaining binding at 1 µM (AAK1): 47%
remaining binding at 1 µM (AMPK-alpha2): 99%
remaining binding at 1 µM (BUB1): 7.1%
remaining binding at 1 µM (CAMK2G): 78%
remaining binding at 1 µM (CDK2): 51%
remaining binding at 1 µM (CDK5): 83%
remaining binding at 1 µM (CDKL5): 90%
remaining binding at 1 µM (CHEK2): 77%
remaining binding at 1 µM (CLK2): 82%
remaining binding at 1 µM (CSF1R): 70%
remaining binding at 1 µM (CSK): 92%
remaining binding at 1 µM (DCAMKL3): 100%
remaining binding at 1 µM (DDR1): 29%
remaining binding at 1 µM (EPHB6): 13%
remaining binding at 1 µM (FLT3(D835H)): 57%
remaining binding at 1 µM (FLT3(D835Y)): 67%
remaining binding at 1 µM (HIPK2): 71%
remaining binding at 1 µM (HUNK): 100%
remaining binding at 1 µM (IRAK4): 78%
remaining binding at 1 µM (KIT): 83%
remaining binding at 1 µM (KIT(A829P)): 100%
remaining binding at 1 µM (KIT(D816H)): 59%
remaining binding at 1 µM (LOK): 53%
remaining binding at 1 µM (MET): 26%
remaining binding at 1 µM (MKNK2): 96%
remaining binding at 1 µM (MLK2): 100%
remaining binding at 1 µM (MRCKB): 59%
